Several values for one entry are separate records, joined by “and”; a condition that tells them apart may be missing. Equal entries are not always repeated. Where two headings read alike, the source gives them in different places.

The subject of one test is MYB. The experiment in a line: Protein abundance, HiBit-assay system (Promega), MYB. Format: cell-based. The following applies: Table 6; HiBiT-modified K562 cells, 24 hours. An excerpt: In some embodiments, a compound of Formula (I) or (II) or a pharmaceutically acceptable salt thereof, e.g., as described herein, modulates the expression of a target protein (e.g., HTT or MYB) in a reference cell or sample. In an embodiment, a compound of Formula (I) or (II) or a pharmaceutically acceptable salt thereof, e.g., as described herein, increases the expression of a target protein (e.g., HTT or MYB) in a reference cell or sample. In an embodiment, a compound of Formula (I) or (II) or a pharmaceutically acceptable salt thereof, e.g., as described herein, decreases the expression of a target protein (e.g., HTT or MYB) in a reference cell or sample. The effect of an exemplary compound of Formula (I) or (II) on protein abundance may be measured using a standard assay for measuring protein abundance, such as the HiBit-assay system (Promega). In this assay, percent response for each respective cell line may be as calculated at each compound concentration as follows: % response=100*(S−PC)/(NC−PC). For the normalized response at each concentration, a four-parameter logistical regression may be fit to the data and the response may be interpolated at the 50% value to determine a concentration for protein abundance at 50% (IC50) an untreated control. In an embodiment, a compound of Formula (I) or (II) or a pharmaceutically acceptable salt thereof, e.g., as described herein, has a protein abundance response less than 100 nM. In an embodiment, a compound of Formula (I) or (II) or a pharmaceutically acceptable salt thereof, e.g., as described herein, has a protein abundance response between 100-1000 nM. In an embodiment, a compound of Formula (I) or (II) or a pharmaceutically acceptable salt thereof, e.g., as described herein, has a protein abundance response greater than 1000 nM. In an embodiment, a compound of Formula (I) or (II) or a pharmaceutically acceptable salt thereof, e.g., as described herein, has a protein abundance response greater than 10 uM. In an embodiment, a compound of Formula (I) or (II) or a pharmaceutically acceptable salt thereof, e.g., as described herein, modulates the protein abundance of a target protein by about 1%, 5%, 10%, 15%, 20%, 25%, 30%, 35%, 40%, 45%, 50%, 55%, 60%, 65%, 70%, 75%, 80%, 85%, 90%, 95%, 99% or more, e.g., compared with a reference compound.
In general terms: With HiBiT, luminescence reflects the tagged protein that the partner subunit can reach.

For test [1], the system named is HTT mRNA. The experiment in a line: Splicing RT-qPCR gene panel, HTT canonical junction (CJ) mRNA. Format: cell-based, human. The following applies: Homo sapiens, Tables 4A/4B, read-out: HTT (IC50, decrease in CJ mRNA, gene panel). The essentials:
(§1)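 Cells (A673 in DMEM/10% FBS, K562 in IMDM/10% FBS) got compound for 24 h, top dose 10 uM, 11 points, 3-fold steps, DMSO ≤0.25%. Lysates went to RT-qPCR for the canonical exon-exon junction; ΔΔCt against housekeeper and DMSO gave RQ, then percentage response.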
A general note: In qPCR the cycle at which signal appears reflects the starting amount.

A further test deals with MYB mRNA. Nature of the test: Splicing RT-qPCR assay, MYB canonical (CJ) and alternative (AJ) junction mRNA. The conditions noted are these: Homo sapiens. Format: cell-based, human. The essentials:
(§2)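 One-step RT-qPCR on cell lysates, CJ and AJ isoforms quantified; housekeeping normalization GAPDH/GUSB (K562) or PPIA (A673). Cells: A673 in DMEM/10% FBS or K562 in IMDM/10% FBS. Compounds 11-pt 3-fold, top 10 uM, 24 h, 37 °C, 5% CO2.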

For a further test, the system named is SMN2 mRNA. The experiment in a line: Splicing RT-qPCR gene panel, SMN2 canonical junction (CJ) mRNA. Format: cell-based, human. The conditions noted are these: Homo sapiens, Tables 4A/4B, read-out: SMN2 (IC50, decrease in CJ mRNA, gene panel). Summed up:
as §1

In the next test the test system is Target C mRNA. The experiment in a line: Splicing RT-qPCR gene panel, Target C canonical junction (CJ) mRNA. Format: cell-based, human. The following applies: Homo sapiens, Tables 4A/4B, read-out: Target C (IC50, decrease in CJ mRNA, gene panel). The essentials:
as §1

The next test concerns K562 cells. Nature of the test: Cell Titer Glo 2.0 cell viability assay, K562. Format: cell-based. The conditions noted are these: Homo sapiens, 72 hours incubation. In general terms: In ATP-based viability assays light output follows the ATP content of the culture.
The subject of test [2] is HTT mRNA. The experiment in a line: Splicing RT-qPCR assay, HTT canonical (CJ) and alternative (AJ) junction mRNA. The following applies: Homo sapiens, A673 or K562 cells, 24 hours compound treatment. Format: cell-based, human. Summed up: as §2
[3] abbreviates: Tables 4A/4B, canonical junction qPCR panel, read-out: MYB (IC50, decrease in CJ mRNA, gene panel).

Protocol for K562 cells: Compounds described herein were screened for toxicity in K562 (human chronic myelogenous leukemia) and SH-SY5Y (human neuroblastoma) cells using a Cell Titer Glo 2.0 assay.
• Promega CellTiter-Glo® 2.0 Cell Viability Assay (cat #G9241) • Corning 384-well TC-treated microplates (cat #3570)
Cells were plated at 500 cells/well (K562 cells) in 45 μL of IMDM supplemented with 10% FBS in a 384-well opaque plate. Wells containing only medium were used as a blank control. Test compounds (e.g., compounds of Formula (I) or (II)) were first serially diluted in DMSO then diluted 1:100 with EIDM+10% FBS. The final concentration of DMSO was 0.1% in each well. The cells were incubated for 72 hours at 37° C. and 5% CO2 before assaying with Cell Titer Glo 2.0 reagent.

For `Cc1cn2cc(NC(=O)c3ccc(C4CCNCC4)c4oc(C)nc34)cc(F)c2n1` [Compound 187], the IC50 (as a rule, the concentration at which inhibition is half-maximal) was 100 to 1000 nM and < 100 nM in the test on MYB; 100 to 1000 nM in the test on HTT mRNA [1]; 100 to 1000 nM with MYB mRNA (setting [3]); below 100 nM in the test with SMN2 mRNA; 1000 to 10000 nM in the test on Target C mRNA. In addition, the GI50 (usually the concentration that inhibits growth by half) in the test with K562 cells lay in the range of 100 to 1000 nM.
With `Cc1cn2cc(NC(=O)c3ccc(N(C)C4CCN(C)CC4)c4cc(C)oc34)cc(F)c2n1` [Compound 200], the IC50 was 1000 to 10000 nM in the test on HTT mRNA [1]; 1000 to 10000 nM with MYB mRNA (24 h, A673 or K562 cells, 24 hours compound treatment, RT-qPCR, read-out: MYB CJ (IC50, decrease in canonical junction mRNA)); 1000 to 10000 nM with MYB mRNA (setting [3]); 1000 to 10000 nM with HTT mRNA [2] (24 h, read-out: HTT CJ (IC50, decrease in canonical junction mRNA)); below 100 nM in the test on SMN2 mRNA; 1000 to 10000 nM in the test on Target C mRNA. Further, the AC50 (as a rule, the concentration at which the activity in the assay is half-maximal) was 1000 to 10000 nM in the test on MYB mRNA (24 h, A673 or K562 cells, 24 hours compound treatment, RT-qPCR, read-out: MYB AJ (AC50, increase in alternative junction mRNA)) and 1000 to 10000 nM with HTT mRNA [2] (read-out: HTT AJ (AC50, increase in alternative junction mRNA)). The compound also showed a GI50 with K562 cells of 1000 to 10000 nM.
